US10414763B2 (CANCER RESEARCH TECHNOLOGY LIMITED, priority 2014, dated 2019)

Target: T1, full-length human PKCι (Homo sapiens, UniProt P41743)
T1 construct: Recombinant, full-length human PKCι expressed in Sf21 insect cells is also commercially available; purchased EMD Millipore; host or cells: Sf21 insect cells (baculovirus)
T1 sequence (P41743 1-596): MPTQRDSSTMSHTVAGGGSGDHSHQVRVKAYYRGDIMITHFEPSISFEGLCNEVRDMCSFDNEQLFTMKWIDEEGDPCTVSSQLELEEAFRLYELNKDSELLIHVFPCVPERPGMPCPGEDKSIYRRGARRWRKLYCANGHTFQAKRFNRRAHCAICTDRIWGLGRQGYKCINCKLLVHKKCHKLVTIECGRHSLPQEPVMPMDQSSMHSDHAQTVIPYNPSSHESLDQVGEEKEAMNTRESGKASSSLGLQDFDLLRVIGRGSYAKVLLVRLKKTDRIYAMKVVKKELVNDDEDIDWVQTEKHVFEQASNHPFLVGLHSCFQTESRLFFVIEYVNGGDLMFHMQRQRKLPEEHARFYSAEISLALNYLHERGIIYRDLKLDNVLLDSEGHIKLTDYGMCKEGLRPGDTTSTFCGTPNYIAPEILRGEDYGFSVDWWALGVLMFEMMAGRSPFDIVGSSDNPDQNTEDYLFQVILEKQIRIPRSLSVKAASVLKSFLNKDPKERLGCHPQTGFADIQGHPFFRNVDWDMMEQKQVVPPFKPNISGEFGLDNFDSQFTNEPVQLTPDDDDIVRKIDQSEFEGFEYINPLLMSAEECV
Test: PKCι IC50 IMAP fluorescence polarisation assay, full-length enzyme, 150 μM ATP
Assay type: biochemical
Settings: read-out: IC50 in IMAP assay against full length PKCi at 150 μM ATP
Method in brief: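 IMAP fluorescence polarisation kinase assay: 15 pM baculovirus-expressed human PKCiota with 100 nM FAM-pseudosubstrate peptide and 150 μM ATP, 1 h at 25 °C. IMAP detection reagent then 2 h at 25 °C before FP measurement. Inhibition referenced to no-compound and no-enzyme controls for IC50 fitting.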

| Structure (SMILES) | IC50 [nM] |
| --- | --- |
| C[C@@H]1CNCC[C@H]1Nc1nc(-c2ccnc(Nc3ncccc3F)c2)nc2cncc(C3CCC3)c12 (racemic) [Example 289, {5-Cyclobutyl-2-[2-(3-fluoro-pyridin-2-ylamino)-pyridin-4-yl]-pyrido[3,4-d]pyrimidin-4-yl}-(rac-(3R,4R)-3-methyl-piperidin-4-yl)-amine] | < 100 |
| C[C@@H]1CNCC[C@H]1Nc1nc(-c2ccnc(Nc3ncc(F)cc3F)c2)nc2cncc(C3CCC3)c12 (racemic) [Example 290, {5-Cyclobutyl-2-[2-(3,5-difluoro-pyridin-2-ylamino)-pyridin-4-yl]-pyrido[3,4-d]pyrimidin-4-yl}-(rac-(3R,4R)-3-methyl-piperidin-4-yl)-amine] | < 100 |
| C[C@@H]1CNCC[C@H]1Nc1nc(-c2ccnc(Nc3nc(F)cc(F)c3F)c2)nc2cncc(C3CCC3)c12 (racemic) [Example 291, {5-Cyclobutyl-2-[2-(3,4,6-trifluoro-pyridin-2-ylamino)-pyridin-4-yl]-pyrido[3,4-d]pyrimidin-4-yl}-(rac-(3R,4R)-3-methyl-piperidin-4-yl)-amine] | < 100 |
| O[C@H]1CNCC[C@H]1Nc1nc(-c2ccnc(Nc3ncccc3F)c2)nc2cncc(C3CCC3)c12 (racemic) [Example 292, rac-(3S,4R)-4-{5-Cyclobutyl-2-[2-(3-fluoro-pyridin-2-ylamino)-pyridin-4-yl]-pyrido[3,4-d]pyrimidin-4-ylamino}-piperidin-3-ol] | < 100 |
| O[C@H]1CNCC[C@H]1Nc1nc(-c2ccnc(Nc3ncc(F)cc3F)c2)nc2cncc(C3CCC3)c12 (racemic) [Example 293, rac-(3S,4R)-4-{5-Cyclobutyl-2-[2-(3,5-difluoro-pyridin-2-ylamino)-pyridin-4-yl]-pyrido[3,4-d]pyrimidin-4-ylamino}-piperidin-3-ol] | < 100 |
| O[C@H]1CNCC[C@H]1Nc1nc(-c2ccnc(Nc3nc(F)cc(F)c3F)c2)nc2cncc(C3CCC3)c12 (racemic) [Example 294, rac-(3S,4R)-4-{5-Cyclobutyl-2-[2-(3,4,6-trifluoro-pyridin-2-ylamino)-pyridin-4-yl]-pyrido[3,4-d]pyrimidin-4-ylamino}-piperidin-3-ol] | < 100 |
| C[C@@H]1CNCC[C@@H]1Nc1nc(-c2ccnc(Nc3nc(F)cc(F)c3F)c2)nc2cncc(C3CCC3)c12 (racemic) [Example 295, {5-Cyclobutyl-2-[2-(3,4,6-trifluoro-pyridin-2-ylamino)-pyridin-4-yl]-pyrido[3,4-d]pyrimidin-4-yl}-(rac-(3R,4S)-3-methyl-piperidin-4-yl)-amine] | < 100 |
| O[C@@H]1CNCC[C@H]1Nc1nc(-c2ccnc(Nc3nc(F)cc(F)c3F)c2)nc2cncc(C3CCC3)c12 (racemic) [Example 296, rac-(3R,4R)-4-{5-Cyclobutyl-2-[2-(3,4,6-trifluoro-pyridin-2-ylamino)-pyridin-4-yl]-pyrido[3,4-d]pyrimidin-4-ylamino}-piperidin-3-ol] | < 100 |
| C[C@@H]1CNCC[C@@H]1Nc1nc(-c2ccnc(Nc3ncccc3F)c2)nc2cncc(C3CC3)c12 (racemic) [Example 299, {5-Cyclopropyl-2-[2-(3-fluoro-pyridin-2-ylamino)-pyridin-4-yl]-pyrido[3,4-d]pyrimidin-4-yl}-(rac-(3R,4S)-3-methyl-piperidin-4-yl)-amine] | 100 to 1000 |
| C[C@@H]1CNCC[C@@H]1Nc1nc(-c2ccnc(Nc3ncc(F)cc3F)c2)nc2cncc(C3CC3)c12 (racemic) [Example 300, {5-Cyclopropyl-2-[2-(3,5-difluoro-pyridin-2-ylamino)-pyridiri-4-yl]-pyrido[3,4-d]pyrimidin-4-yl}-(rac-(3R,4S)-3-methyl-piperidin-4-yl)-amine] | 100 to 1000 |
| C[C@@H]1CNCC[C@@H]1Nc1nc(-c2ccnc(Nc3nc(F)cc(F)c3F)c2)nc2cncc(C3CC3)c12 (racemic) [Example 301, {5-Cyclopropyl-2-[2-(3,4,6-trifluoro-pyridin-2-ylamino)-pyridin-4-yl]-pyrido[3,4-d]pyrimidin-4-yl}-(rac-(3R,4S)-3-methyl-piperidin-4-yl)-amine] | < 100 |
| C[C@@H]1CNCC[C@H]1Nc1nc(-c2ccnc(Nc3ncccc3F)c2)nc2cncc(C3CC3)c12 (racemic) [Example 302, {5-Cyclopropyl-2-[2-(3-fluoro-pyridin-2-ylamino)-pyridin-4-yl]-pyrido[3,4-d]pyrimidin-4-yl}-(rac-(3R,4R)-3-methyl-piperidin-4-yl)-amine] | < 100 |
| C[C@@H]1CNCC[C@H]1Nc1nc(-c2ccnc(Nc3ncc(F)cc3F)c2)nc2cncc(C3CC3)c12 (racemic) [Example 303, {5-Cyclopropyl-2-[2-(3,5-difluoro-pyridin-2-ylamino)-pyridin-4-yl]-pyrido[3,4-d]pyrimidin-4-yl}-(rac-(3R,4R)-3-methyl-piperidin-4-yl)-amine] | < 100 |
| C[C@@H]1CNCC[C@H]1Nc1nc(-c2ccnc(Nc3nc(F)cc(F)c3F)c2)nc2cncc(C3CC3)c12 (racemic) [Example 304, {5-Cyclopropyl-2-[2-(3,4,6-trifluoro-pyridin-2-ylamino)-pyridin-4-yl]-pyrido[3,4-d]pyrimidin-4-yl}-(rac-(3R,4R)-3-methyl-piperidin-4-yl)-amine] | < 100 |
| O[C@H]1CNCC[C@H]1Nc1nc(-c2ccnc(Nc3ncccc3F)c2)nc2cncc(C3CC3)c12 (racemic) [Example 305, rac-(3S,4R)-4-{5-Cyclopropyl-2-[2-(3-fluoro-pyridin-2-ylamino)-pyridin-4-yl]-pyrido[3,4-d]pyrimidin-4-ylamino}-piperidin-3-ol] | 100 to 1000 |
| O[C@H]1CNCC[C@H]1Nc1nc(-c2ccnc(Nc3ncc(F)cc3F)c2)nc2cncc(C3CC3)c12 (racemic) [Example 306, rac-(3S,4R)-4-{5-Cyclopropyl-2-[2-(3,5-difluoro-pyridin-2-ylamino)-pyridin-4-yl]-pyrido[3,4-d]pyrimidin-4-ylamino}-piperidin-3-ol] | 100 to 1000 |
| O[C@H]1CNCC[C@H]1Nc1nc(-c2ccnc(Nc3nc(F)cc(F)c3F)c2)nc2cncc(C3CC3)c12 (racemic) [Example 307, rac-(3S,4R)-4-{5-Cyclopropyl-2-[2-(3,4,6-trifluoro-pyridin-2-ylamino)-pyridin-4-yl]-pyrido[3,4-d]pyrimidin-4-ylamino}-piperidin-3-ol] | < 100 |
| O[C@@H]1CNCC[C@H]1Nc1nc(-c2ccnc(Nc3ncccc3F)c2)nc2cncc(C3CC3)c12 (racemic) [Example 308, rac-(3R,4R)-4-{5-Cyclopropyl-2-[2-(3-fluoro-pyridin-2-ylamino)-pyridin-4-yl]-pyrido[3,4-d]pyrimidin-4-ylamino}-piperidin-3-ol] | 100 to 1000 |
| O[C@@H]1CNCC[C@H]1Nc1nc(-c2ccnc(Nc3ncc(F)cc3F)c2)nc2cncc(C3CC3)c12 (racemic) [Example 309, rac-(3R,4R)-4-{5-Cyclopropyl-2-[2-(3,5-difluoro-pyridin-2-ylamino)-pyridin-4-yl]-pyrido[3,4-d]pyrimidin-4-ylamino}-piperidin-3-ol] | < 100 |
| O[C@@H]1CNCC[C@H]1Nc1nc(-c2ccnc(Nc3nc(F)cc(F)c3F)c2)nc2cncc(C3CC3)c12 (racemic) [Example 310, rac-(3R,4R)-4-{5-Cyclopropyl-2-[2-(3,4,6-trifluoro-pyridin-2-ylamino)-pyridin-4-yl]-pyrido[3,4-d]pyrimidin-4-ylamino}-piperidin-3-ol] | < 100 |
| Cc1nc(Nc2cc(-c3nc(N[C@H]4CCNC[C@H]4C)c4c(C5CCC5)cncc4n3)ccn2)ccc1C#N (racemic) [Example 311, 6-{4-[5-Cyclobutyl-4-(rac-(3R,4S)-3-methyl-piperidin-4-ylamino)-pyrido[3,4-d]pyrimidin-2-yl]-pyridin-2-ylamino}-2-methyl-nicotinonitrile] | < 100 |
| Cc1nc(Nc2cc(-c3nc(N[C@@H]4CCNC[C@H]4C)c4c(C5CCC5)cncc4n3)ccn2)ccc1C#N (racemic) [Example 312, 6-{4-[5-Cyclobutyl-4-(rac-(3R,4R)-3-methyl-piperidin-4-ylamino)-pyrido[3,4-d]pyrimidin-2-yl]-pyridin-2-ylamino}-2-methyl-nicotinonitrile] | < 100 |
| Cc1nc(Nc2cc(-c3nc(N[C@@H]4CCNC[C@@H]4O)c4c(C5CCC5)cncc4n3)ccn2)ccc1C#N (racemic) [Example 313, 6-{4-[5-Cyclobutyl-4-(rac-(3S,4R)-3-hydroxy-piperidin-4-ylamino)-pyrido[3,4-d]pyrimidin-2-yl]-pyridin-2-ylamino}-2-methyl-nicotinonitrile] | < 100 |
| Cc1nc(Nc2cc(-c3nc(N[C@@H]4CCNC[C@H]4O)c4c(C5CCC5)cncc4n3)ccn2)ccc1C#N (racemic) [Example 314, 6-{4-[5-Cyclobutyl-4-(rac-(3R,4R)-3-hydroxy-piperidin-4-ylamino)-pyrido[3,4-d]pyrimidin-2-yl]-pyridin-2-ylamino}-2-methyl-nicotinonitrile] | < 100 |
